Data on 29 compounds can be found in patent US10370366B2 (Flatley Discovery Lab, LLC, priority 2013, dated 2019).

Structures are written as SMILES.

The assay addresses T1, human F508del CFTR (Homo sapiens, UniProt P13569, DEL508-508).
T1 construct: expressed in transfected cells; host or cells: Fisher Rat Thyroid (FRT) cells
As to the kind of experiment: CFTR-YFP High Throughput Assay. The format is cell-based. The settings on record: FRT cells expressing human F508del CFTR and YFP; for Emax: EMax normalized to the positive control, read-out: % Efficacy. The method in brief:
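Corrector mode: 24-26 h compound exposure (2 nM-40 μM, 37° C) of FRT cells carrying human F508del CFTR and YFP-H148Q/I152L, followed by washing and 60-120 min RT stimulation with 20 μM forskolin and 30 μM P3. CFTR activity is the least-squares-fitted rate of YFP quenching (Ex 500/Em 540 nm) after iodide addition.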

T1 sequence (P13569 with tags, fused parts or gaps DEL508-508): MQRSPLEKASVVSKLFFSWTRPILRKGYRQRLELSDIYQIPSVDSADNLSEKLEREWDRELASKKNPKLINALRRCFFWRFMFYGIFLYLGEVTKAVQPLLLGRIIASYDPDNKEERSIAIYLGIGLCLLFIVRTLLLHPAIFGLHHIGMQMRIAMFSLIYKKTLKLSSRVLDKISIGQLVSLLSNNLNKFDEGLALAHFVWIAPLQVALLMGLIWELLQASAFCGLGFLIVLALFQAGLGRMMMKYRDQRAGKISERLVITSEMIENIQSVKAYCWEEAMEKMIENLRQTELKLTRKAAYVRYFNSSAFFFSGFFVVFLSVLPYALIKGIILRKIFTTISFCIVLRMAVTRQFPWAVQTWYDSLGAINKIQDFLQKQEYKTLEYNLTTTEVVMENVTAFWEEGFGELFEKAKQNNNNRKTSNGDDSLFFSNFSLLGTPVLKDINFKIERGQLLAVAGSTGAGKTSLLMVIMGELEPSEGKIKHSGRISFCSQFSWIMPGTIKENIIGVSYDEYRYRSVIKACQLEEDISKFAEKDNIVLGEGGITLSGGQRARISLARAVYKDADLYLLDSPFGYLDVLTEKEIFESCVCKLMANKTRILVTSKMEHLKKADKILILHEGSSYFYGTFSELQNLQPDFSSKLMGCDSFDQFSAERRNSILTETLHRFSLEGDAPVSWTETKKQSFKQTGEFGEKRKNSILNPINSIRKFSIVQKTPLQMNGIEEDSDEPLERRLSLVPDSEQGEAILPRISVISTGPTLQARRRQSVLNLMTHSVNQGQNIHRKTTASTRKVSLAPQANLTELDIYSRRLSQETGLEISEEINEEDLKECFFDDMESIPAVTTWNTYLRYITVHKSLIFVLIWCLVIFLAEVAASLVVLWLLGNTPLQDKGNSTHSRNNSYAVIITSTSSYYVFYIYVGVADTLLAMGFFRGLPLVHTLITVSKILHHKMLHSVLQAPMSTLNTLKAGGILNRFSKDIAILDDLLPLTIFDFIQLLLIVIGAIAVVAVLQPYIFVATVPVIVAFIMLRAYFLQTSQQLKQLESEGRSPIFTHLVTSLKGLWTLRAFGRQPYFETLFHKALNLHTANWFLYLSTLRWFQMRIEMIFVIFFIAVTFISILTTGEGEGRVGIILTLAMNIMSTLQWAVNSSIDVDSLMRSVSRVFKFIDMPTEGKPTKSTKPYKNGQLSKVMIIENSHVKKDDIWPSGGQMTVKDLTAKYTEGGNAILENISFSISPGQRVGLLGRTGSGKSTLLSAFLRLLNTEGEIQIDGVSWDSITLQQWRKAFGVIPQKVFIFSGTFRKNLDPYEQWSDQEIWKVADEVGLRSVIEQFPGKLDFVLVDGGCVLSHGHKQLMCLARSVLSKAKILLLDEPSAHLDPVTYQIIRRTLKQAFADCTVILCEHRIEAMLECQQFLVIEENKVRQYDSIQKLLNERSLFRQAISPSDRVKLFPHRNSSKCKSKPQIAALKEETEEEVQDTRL

For `CCN(C(=O)c1nn(-c2ccc(C)cc2)c(=O)c2c1c1ccccc1n2C1CCC1)c1ccccc1` [Example 219, 5-cyclobutyl-N-ethyl-4-oxo-N-phenyl-3-p-tolyl-4,5-dihydro-3H-pyridazino[4,5-b]indole-1-carboxamide], the Emax was in the range of 10 to 30%.

As to `CCN(C(=O)Cn1nc(Cc2cccnc2)c2ccc(C)cc2c1=O)c1ccc2c(c1)OC(F)(F)O2` [Example 45, N-(2,2-difluorobenzo[d][1,3]dioxol-5-yl)-N-ethyl-2-(7-methyl-1-oxo-4-(pyridin-3-ylmethyl)phthalazin-2(1H)-yl)acetamide], the Emax is > 80%. Take `CCN(C(=O)c1nn(C(C)C)c(=O)c2c1c1sc(C)cc1n2C)c1ccccc1` [Example 246, N-ethyl-6-isopropyl-2,4-dimethyl-5-oxo-N-phenyl-5,6-dihydro-4H-thieno[2′,3′:4,5]pyrrolo[2,3-d]pyridazine-8-carboxamide]: the Emax was in the range of 30 to 80% and the EC50 is > 20 µM. As for `COc1ccc2c(-c3cccc(C#N)c3)nn(CC(=O)N(C)c3ccc4c(c3)OC(F)(F)O4)c(=O)c2c1` [Example 69, 2-(4-(3-cyanophenyl)-7-methoxy-1-oxophthalazin-2(1H)-yl)-N-(2,2-difluorobenzo[d][1, 3]dioxol-5-yl)-N-methylacetamide], the Emax was > 80%. As to `CCN(C(=O)Cn1nc(-c2ccc(S(N)(=O)=O)cc2)c2ccc(OC)cc2c1=O)c1ccc2nc(C)oc2c1` [Example 80, N-ethyl-2-(7-methoxy-1-oxo-4-(4-sulfamoylphenyl)phthalazin-2(1H)-yl)-N-(2-methylbenzo[d]oxazol-6-yl)acetamide], the Emax was 30 to 80% and the EC50 was 10 to 20 µM. `CCN(C(=O)Cn1nc(-c2cccc(C#N)c2)c2ccc(OC)cc2c1=O)c1ccc2c(c1)OC(F)(F)O2` [Example 75, 2-(4-(3-cyanophenyl)-7-methoxy-1-oxophthalazin-2(1H)-yl)-N-(2,2-difluorobenzo[d][1,3]dioxol-5-yl)-N-ethylacetamide]: the Emax is > 80% and the EC50 was < 10 µM. Turning to `CCN(C(=O)Cn1ncc2c(c1=O)c1ccccc1n2Cc1ccc(C#N)cc1)c1ccc2c(c1)OC(F)(F)O2` [Example 144, 2-(5-(4-cyanobenzyl)-1-oxo-1H-pyridazino[4,5-b]indol-2(5H)-yl)-N-(2-2-difluorobenzo[d][1,3]dioxol-5-yl)-N-ethylacetamide], the Emax is > 80% and the EC50 was 10 to 20 µM. As for `CCN(C(=O)Cn1nc(Cc2cccnc2)c2cc(OC)c(OC)cc2c1=O)c1ccc2c(c1)OC(F)(F)O2` [Example 44, N-(2,2-difluorobenzo[d][1,3]dioxol-5-yl)-2-(6,7-dimethoxy-1-oxo-4-(pyridin-3-ylmethyl)phthalazin-2(1H)-yl)-N-ethylacetamide], the Emax is 30 to 80% and the EC50 was 10 to 20 µM. As to `CCN(C(=O)c1nn(-c2ccc(C)cc2)c(=O)c2c1c1ccccc1n2C)c1cccnc1` [Example 157, N-ethyl-5-methyl-4-oxo-N-(pyridin-3-yl)-3-(p-tolyl)-4,5-dihydro-3H-pyridazino[4,5-b]indole-1-carboxamide], the Emax lay in the range of 30 to 80%. With `CCc1ccc(N(CC)C(=O)Cn2nc(Cc3cccnc3)c3c(C)cccc3c2=O)cc1` [Example 31, N-ethyl-N-(4-ethylphenyl)-2-(5-methyl-1-oxo-4-(pyridin-3-ylmethyl)phthalazin-2(1H)-yl)acetamide], the Emax was in the range of 30 to 80%. As to `CCN(C(=O)c1nn(-c2ccc(C)cc2)c(=O)c2c1c1cc(Cl)ccc1n2C)c1ccccc1` [Example 165, 8-chloro-N-ethyl-5-methyl-4-oxo-N-phenyl-3-(p-tolyl)-4,5-dihydro-3H-pyridazino[4,5-b]indole-1-carboxamide], the Emax is 30 to 80% and the EC50 was < 10 µM. Consider `CCN(C(=O)Cn1nc(Cc2cccnc2)c2cc(C(C)(C)C)ccc2c1=O)c1ccc2c(c1)OC(F)(F)O2` [Example 49, 2-(6-(tert-butyl)-1-oxo-4-(pyridin-3-ylmethyl)phthalazin-2(1H)-yl)-N-(2,2-difluorobenzo[d][1,3]dioxol-5-yl)-N-ethylacetamide], for which the Emax was > 80%.

For `CCN(C(=O)Cn1nc(-c2cccnc2)c2ccccc2c1=O)c1ccc2c(c1)OC(F)(F)O2` [Example 24, N-(2,2-difluorobenzo[d][1, 3]dioxol-5-yl)-N-ethyl-2-(1-oxo-4-(pyridin-3-yl)phthalazin-2(1H)-yl)acetamide], the Emax was 30 to 80% and the EC50 was < 10 µM.

Turning to `CCc1ccc(N(CC)C(=O)Cn2nc(C(=O)Nc3cc(Cl)ccc3C#N)c3ccccc3c2=O)cc1` [Example 128, N-(5-chloro-2-cyanophenyl)-3-(2-(ethyl(4-ethylphenyl)amino)-2-oxoethyl)-4-oxo-3,4-dihydrophthalazine-1-carboxamide], the Emax was 30 to 80% and the EC50 is 10 to 20 µM.

On to `CCc1ccc(N(CC)C(=O)Cn2nc(Cc3cccnc3)c3cc(Cl)ccc3c2=O)cc1` [Example 40, 2-(6-chloro-1-oxo-4-(pyridin-3-ylmethyl)phthalazin-2(1H)-yl)-N-ethyl-N-(4-ethylphenyl)acetamide], for which the Emax is 30 to 80%.

For the compound `CCN(C(=O)c1nn(-c2ccccc2F)c(=O)c2c1c1ccccc1n2C)c1ccccc1` [Example 174, N-ethyl-3-(2-fluorophenyl)-5-methyl-4-oxo-N-phenyl-4,5-dihydro-3H-pyridazino[4,5-b]indole-1-carboxamide], the Emax was in the range of 30 to 80%.

As for `CCN(C(=O)Cn1ncc2c(c1=O)c1ccccc1n2CCC#N)c1ccc2c(c1)OC(F)(F)O2` [Example 138, 2-(5-(2-cyanoethyl)-1-oxo-1H-pyridazino[4,5-b]indol-2(5H)-yl)-N-(2,2-difluorobenzo[d][1,3]dioxol-5-yl)-N-ethylacetamide], the Emax fell in the range of 10 to 30% and the EC50 was > 20 µM. In the same order, the values of `CCN(C(=O)c1nn(-c2ccc(C)cc2)c(=O)c2c1c1sc(C)cc1n2C)c1ccccc1F` [Example 247, N-ethyl-N-(2-fluorophenyl)-2,4-dimethyl-5-oxo-6-(p-tolyl)-5,6-dihydro-4H-thieno[2′,3′:4,5]pyrrolo[2,3-d]pyridazine-8-carboxamide] are 30 to 80% and > 20 µM. As for `CCN(C(=O)c1nn(-c2ccc(Cl)cc2)c(=O)c2c1c1ccccc1n2C)c1ccccc1` [Example 178, 3-(4-chlorophenyl)-N-ethyl-5-methyl-4-oxo-N-phenyl-4,5-dihydro-3H-pyridazino[4,5-b]indole-1-carboxamide], the Emax lay in the range of 30 to 80%.

For the compound `CCOc1cccc2c(Cc3cccnc3)nn(CC(=O)N(CC)c3ccc4c(c3)OC(F)(F)O4)c(=O)c12` [Example 57, N-(2,2-difluorobenzo[d][1,3]dioxol-5-yl)-N-ethyl-2-(8-ethoxy-1-oxo-4-(pyridin-3-ylmethyl)phthalazin-2(1H)-yl)acetamide], the Emax lay in the range of 30 to 80%. Regarding `CCN(CC)C(=O)c1nn(CC(O)COCc2ccccc2)c(=O)c2c1c1c(OC)cccc1n2C` (stereo not drawn) [Example 231, 3-(3-(benzyloxy)-2-hydroxypropyl)-N,N-diethyl-9-methoxy-5-methyl-4-oxo-4,5-dihydro-3H-pyridazino[4,5-b]indole-1-carboxamide], the Emax was in the range of 30 to 80% and the EC50 was < 10 µM.

With `CCc1ccc(N(CC)C(=O)Cn2nc(Cc3cccnc3)c3ccc(C)cc3c2=O)cc1` [Example 28, N-ethyl-N-(4-ethylphenyl)-2-(7-methyl-1-oxo-4-(pyridin-3-ylmethyl)phthalazin-2(1H)-yl)acetamide], the Emax is 30 to 80%.

With `Cc1ccc(-n2nc(C(=O)N3CCN(Cc4ccccc4)CC3)c3c4ccccc4n(C)c3c2=O)cc1` [Example 161, 1-(4-benzylpiperazine-1-carbonyl)-5-methyl-3-(p-tolyl)-3H-pyridazino[4,5-b]indol-4(5H)-one], the Emax lay within 30 to 80%.

Consider `CCN(C(=O)c1nn(-c2ccccc2)c(=O)c2c1c1ccccc1n2C)c1ccncc1` [Example 158, N-ethyl-5-methyl-4-oxo-3-phenyl-N-(pyridin-4-yl)-4,5-dihydro-3H-pyridazino[4,5-b]indole-1-carboxamide], for which the Emax lay in the range of 30 to 80%. As for `Cc1nc2ccc(N(C)C(=O)Cn3nc(-c4cccc(Cl)c4)c4ccc(O)cc4c3=O)cc2o1` [Example 98, 2-(4-(3-chlorophenyl)-7-hydroxy-1-oxophthalazin-2(1H)-yl)-N-methyl-N-(2-methylbenzo[d]oxazol-6-yl)acetamide], the 50% effective concentration (EC50) is < 10 µM. For `CCN(C(=O)Cn1nc(-c2ccc(C(N)=O)cc2)c2ccc(OC)cc2c1=O)c1ccc2c(c1)OC(F)(F)O2` [Example 82, 4-(3-(2-((2,2-difluorobenzo[d][1, 3]dioxol-5-yl)(ethyl)amino)-2-oxoethyl)-6-methoxy-4-oxo-3,4-dihydrophthalazin-1-yl)benzamide], the Emax was in the range of 30 to 80%.

Consider `Cc1ccc(-n2nc(CN3CCOCC3)c3c4ccccc4n(C)c3c2=O)cc1` [Example 243, 5-methyl-1-(morpholinomethyl)-3-(p-tolyl)-3,5-dihydro-4H-pyridazino[4,5-b]indol-4-one], for which the Emax was 30 to 80% and the EC50 was < 10 µM. In the same order, the values of `CCN(CC)C(=O)c1nn(CC(O)COCc2ccccc2)c(=O)c2c1c1c(Cl)cccc1n2C` (stereo not drawn) [Example 233, 3-(3-(benzyloxy)-2-hydroxypropyl)-9-chloro-N,N-diethyl-5-methyl-4-oxo-4,5-dihydro-3H-pyridazino[4,5-b]indole-1-carboxamide] are 30 to 80% and < 10 µM. Turning to `CCN(C(=O)c1nn(-c2ccc(C)cn2)c(=O)c2c1c1ccccc1n2C)c1ccccc1` [Example 180, N-ethyl-5-methyl-3-(5-methylpyridin-2-yl)-4-oxo-N-phenyl-4,5-dihydro-3H-pyridazino[4,5-b]indole-1-carboxamide], the Emax was in the range of 10 to 30%.
